Where two headings read alike, the source gives them in different places.
How the values were obtained:
endothelial cells = settings: cell proliferation and migration in endothelial cells, phosphorylation of PI3-K/Akt, JNK and eNOS; cited from earlier work
HaCaT cells [1] = assay: MTT cell viability assay; assay type: cell-based, human; settings: concentrations up to 100 µM, 24 h
Procedure: Cell viability was assessed with the MTT assay to evaluate the potential toxicity effect of the tested drugs. HaCaT cells were seeded onto 96-well plates for 24 h prior to drug treatments. After incubations for 24 h, an MTT solution in a final concentration of 0.5 mg/mL was added to each well. Following another 3 h of incubation, DMSO solvent was used to dissolve the purple formazan crystals generated in each well. The absorbance of the samples at 570 nm was measured using a microplate reader (Thermo Fisher Scientific). The cell viability was calculated as follows: cytotoxicity (%) = (experimental value − low control)/(high control − low control) × 100%.

[2] = Chemical stability test through HPLC analysis; assay type: physicochemical; settings: for Inter-Day RSD / Inter-Day Mean Peak Area: 6 consecutive days; for Inter-Day RSD / Intra-Day RSD: n = 6; for Inter-Day Mean Peak Area / Intra-Day Mean Peak Area: n = 6, 210 nm; for Intra-Day RSD / Intra-Day Mean Peak Area: same day; for Stability in aqueous solution (in words): acidic, neutral and basic conditions, HPLC
Source text: Chemical degradation has been a major factor resulting in molecular hydrolysis, oxidation, light-catalyzed degradation and so on. Therefore, stability in aqueous solution, including acidic, neutral and basic conditions, has become a crucial requirement for a promising drug candidate. Prior to the biochemical assay, three phytochemicals were subjected to HPLC analysis to determine their stabilities in various solutions. Glycine buffer (pH 8–11), PBS (pH 7–8) and acetate buffer (pH 4–6) were employed to cover the main pH ranges. […].
The stability test was validated by determining the intra-day and inter-day variability through HPLC analysis, which was performed on an Agilent 1200 Liquid Chromatography (Santa Clara, CA, USA) equipped with an ODS C18 column (4.6 mm × 250 mm). Glycine buffer (pH 8–11), PBS (pH 7–8) and acetate buffer (pH 4–6) were employed to cover main pH ranges. Stock solutions at a concentration of 10 mM of the test compounds were prepared in DMSO and stored at −20 °C, while working concentrations were prepared at 1–5 μM solution in DMSO and buffers. Chromatography was conducted through the ORBAX XDB-C18 column (Agilent, 4.6 × 50 mm, 1.8 μm). The mobile phase was a mixture of water and acetonitrile (95:5, v/v), and the elution time was 15 min. The mobile phase flow rate and injection volume were 1.0 mL/min and 10 μL, respectively. Analytes were detected at a 210 nm wavelength. The intra-day and inter-day stability was calculated by analyzing six replicates of the standard solution of the two analytes during a single day and six replicates of the samples detected on six consecutive days, respectively. Thereafter, the relative standard deviation (RSD) was determined as a measurement of stability.

VEGF protein = target: T1, VEGF protein (Homo sapiens, UniProt P15692); assay: Ultrafiltration-based affinity assay; assay type: binding; settings: ligand 0.02 µM, VEGF protein 0.02 µM, 4 °C, 2 h, n = 4
T1 construct: purchased MCE
T1 sequence (P15692 1-191 isoform P15692-4): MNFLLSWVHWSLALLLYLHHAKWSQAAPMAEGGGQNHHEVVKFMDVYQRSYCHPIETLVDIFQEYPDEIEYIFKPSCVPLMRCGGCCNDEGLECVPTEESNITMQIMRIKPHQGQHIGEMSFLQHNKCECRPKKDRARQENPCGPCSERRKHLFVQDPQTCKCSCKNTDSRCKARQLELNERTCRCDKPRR
Procedure: Caco-2 cells were cultured until fully differentiated after being cultured for 21 days, and the integrity of cell monolayer was determined by the transepithelial electrical resistance (TEER). * p < 0.05. […] Red curve: initial concentration of chemicals; black curve: concentration of chemicals binding to the protein (Cpre − Cpost). n = 4.
The binding affinity was evaluated through the previous approach. Specifically, the tested ligands at 0.02 µM were mixed with or without 0.02 µM of the VEGF protein (MCE, Monmouth Junction, NJ, USA) and incubated in Milli-Q water (Burlington, MA, USA) at 4 °C for 2 h. The mixture was transferred to a 0.5 mL ultrafiltration tube (2000 MW cutoff; Sartorius Stedim Biotech, Gottingen, Germany). After multiple rounds of centrifugation, the supernatant was further analyzed through HPLC investigation, as described above in Section 4.6.

HaCaT cells [3] = assay: Wound closure (wound healing) assay, VEGF-induced; assay type: cell-based; settings: Homo sapiens, 20 h, read-out: IC50 of inhibition of wound recovery rate
Procedure: Photos of each cell scrape at 0 (At0) and 20 h (At20) were captured with microscope and imaging software (Zen, https://www.zeiss.com/microscopy/en/home.html, accessed on 1 September 2024) at a 10× magnification. […] A: positive control, Avastin; F: farrerol; O: ononin; E: (−)-epicatechin.
A wound closure assay was performed on cultured HaCaT cells to study cell migration in vitro. Procedures were described previously by Guo et al.. Briefly, HaCaT cells were seeded onto a 12-well plate with a density of 3 × 10^5 cells/well. Treatments were given when cells grew to full confluency. After serum starvation, sterile 200 μL pipette tips were used to make a vertical and a horizontal scrape on the cell monolayer in a consistent manner. Cells were washed with PBS and treated with drugs at various concentrations. Photos of each cell scrape at 0 (At0) and 20 h (At20) were captured with a microscope and imaging software (Zen) at a 10× magnification. The software TScratch (CSE lab, Zurich, Switzerland, https://github.com/cselab/TScratch, accessed on 1 September 2024) was used to analyze the open area of each scrape photo at different timepoints. Quantification of the recovery rate of the wound was calculated based on the following equation: wound closure (%) = (At0 − At20)/At20 × 100%.

NF-κB in RAW 264.3 cells = assay: Luciferase activity of NF-κB, VEGF-induced; assay type: cell-based; settings: chemicals 1, 10 and 25 µM, avastin 10 ng/mL
Procedure: The luciferase of NK-κB activity was performed following a previous report. Briefly, RAW 264.3 cells were transfected with pNF-κB (Thermo Fisher Scientific) using jetPRIME and incubated for 24 h. The refresh medium was replaced every four hours, and drug treatments were added twice after 24 h or 48 h. Upon completion of the reaction, the chemical luminescent intensity was determined by a luminometer (Promega, WI, USA) and normalized by protein concentrations.

tumor growth = settings: nude mice; cited from earlier work

Row | Molecule | Inter-Day RSD ([2]; acidic (acetate buffer pH 4–6)) [%] | Inter-Day Mean Peak Area ([2]; acidic (acetate buffer pH 4–6)) | Intra-Day RSD ([2]; acidic (acetate buffer pH 4–6)) [%] | Intra-Day Mean Peak Area ([2]; acidic (acetate buffer pH 4–6)) | Inter-Day RSD ([2]; basic (glycine buffer pH 8–11)) [%] | Inter-Day Mean Peak Area ([2]; basic (glycine buffer pH 8–11)) | Intra-Day RSD ([2]; basic (glycine buffer pH 8–11)) [%] | Intra-Day Mean Peak Area ([2]; basic (glycine buffer pH 8–11)) | Inter-Day RSD ([2]; neutral (PBS pH 7–8)) [%] | Inter-Day Mean Peak Area ([2]; neutral (PBS pH 7–8)) | Intra-Day RSD ([2]; neutral (PBS pH 7–8)) [%] | Intra-Day Mean Peak Area ([2]; neutral (PBS pH 7–8)) | protein binding degree (VEGF protein) [%] | Inhibition of VEGF-mediated biological activities (in words) (endothelial cells) | Cell viability (cytotoxic effect) (HaCaT cells [1]) | Stability in aqueous solution (in words) [2] | IC50 (HaCaT cells [3]; HaCaT cells, VEGF-induced) [µM] | Effect on VEGF-induced NF-κB activity (in words) (NF-κB in RAW 264.3 cells) | IC50 (HaCaT cells [3]; HaCaT) [µM] | Tumor growth (in words) (tumor growth)
1 | OC[C@H]1O[C@@H](Oc2cc(O)cc(/C=C/c3ccc(O)cc3)c2)[C@H](O)[C@@H](O)[C@@H]1O [polydatin] | – | – | – | – | – | – | – | – | – | – | – | – | – | robust inhibition | – | – | – | – | – | –
2 | avastin: Bevacizumab (avastin), first monoclonal antibody targeting the VEGF protein; positive control | – | – | – | – | – | – | – | – | – | – | – | – | – | – | – | – | – | attenuate the NF-κB signal | – | –
3 | Oc1ccc(/C=C/c2cc(O)cc(O)c2)cc1 [resveratrol] | – | – | – | – | – | – | – | – | – | – | – | – | – | robust inhibition | – | – | – | – | – | significantly suppress tumor growth

Second part, led by results:

Row | Inter-Day RSD ([2]; acidic (acetate buffer pH 4–6)) [%] | Inter-Day Mean Peak Area ([2]; acidic (acetate buffer pH 4–6)) | Intra-Day RSD ([2]; acidic (acetate buffer pH 4–6)) [%] | Intra-Day Mean Peak Area ([2]; acidic (acetate buffer pH 4–6)) | Inter-Day RSD ([2]; basic (glycine buffer pH 8–11)) [%] | Inter-Day Mean Peak Area ([2]; basic (glycine buffer pH 8–11)) | Intra-Day RSD ([2]; basic (glycine buffer pH 8–11)) [%] | Intra-Day Mean Peak Area ([2]; basic (glycine buffer pH 8–11)) | Inter-Day RSD ([2]; neutral (PBS pH 7–8)) [%] | Inter-Day Mean Peak Area ([2]; neutral (PBS pH 7–8)) | Intra-Day RSD ([2]; neutral (PBS pH 7–8)) [%] | Intra-Day Mean Peak Area ([2]; neutral (PBS pH 7–8)) | protein binding degree (VEGF protein) [%] | Molecule | Inhibition of VEGF-mediated biological activities (in words) (endothelial cells) | Cell viability (cytotoxic effect) (HaCaT cells [1]) | Stability in aqueous solution (in words) [2] | IC50 (HaCaT cells [3]; HaCaT cells, VEGF-induced) [µM] | Effect on VEGF-induced NF-κB activity (in words) (NF-κB in RAW 264.3 cells) | IC50 (HaCaT cells [3]; HaCaT) [µM] | Tumor growth (in words) (tumor growth)
4 | 11.91 | 2510.4 | 3.98 | 2751.5 | 13.58 | 2519.4 | 4.85 | 2726.0 | 7.56 | 2601.7 | 1.38 | 2826.6 | 50.3 | Oc1cc(O)c2c(c1)O[C@H](c1ccc(O)c(O)c1)[C@H](O)C2 [(−)-epicatechin] | – | cells remained unaffected | some mild degradation of (−)-epicatechin was induced in acidic and basic environments | 9.2 | suppressed in dose-dependent manners | – | –
5 | 5.89 | 38,145.2 | 4.09 | 31,803.7 | 6.54 | 35,412.4 | 2.81 | 33,332.4 | 4.43 | 36,478.1 | 4.79 | 31,542.0 | 58.3 | Cc1c(O)c(C)c2c(c1O)C(=O)C[C@@H](c1ccc(O)cc1)O2 [farrerol] | – | cells remained unaffected | relatively stable in diverse aqueous conditions | – | – | 4.7 | –
6 | 4.12 | 275,981.3 | 1.93 | 254,398.2 | 4.78 | 274,514.7 | 3.12 | 273,422.8 | 3.65 | 265,877.4 | 1.61 | 313,200.4 | 53.4 | COc1ccc(-c2coc3cc(O[C@@H]4O[C@H](CO)[C@@H](O)[C@H](O)[C@H]4O)ccc3c2=O)cc1 [ononin] | – | cells remained unaffected | relatively stable in diverse aqueous conditions | 3.8 | suppressed in dose-dependent manners | – | –

Reference: article PMC11767819, “Drug Screening of Flavonoids as Potential VEGF Inhibitors Through Computational Docking and Cell Models” (Molecules, 2025)
